In patent US10294236B2, “Compounds as rearranged during transfection (RET) inhibitors” (GLAXOSMITHKLINE INTELLECTUAL PROPERTY DEVELOPMENT LIMITED, priority 2014, dated 2019):
pIC50: −log10 of the molar value. Where a name gives a salt, the structure may show the parent alone.

Legend:
[1] = Physical stability of the crystalline form on exposure to humidity; format: physicochemical; settings: exposed to 75% RH for five days
Experimental: A suspension of 1-(2-(4-ethoxy-6-oxo-1,6-dihydropyridin-3-yl)-4-methylpyrimidin-5-yl)-3-(5-(1,1,1-trifluoro-2-methylpropan-2-yl)isoxazol-3-yl)urea (493.5 mg) in 12.5 mL of acetone was stirred overnight while cycling the temperature between 40° C. and 5° C. Seeds of Compound A free base anhydrate were added at 5° C. The solids were isolated by vacuum filtration and dried overnight in a vacuum oven at 40° C. to give the title compound as a crystalline solid.

[2] = molecular target: T1, Human RET kinase cytoplasmic domain (Homo sapiens, UniProt P07949); experiment: RET kinase enzymatic assay; format: biochemical
T1 construct: made in house
T1 sequence (P07949 658-1114): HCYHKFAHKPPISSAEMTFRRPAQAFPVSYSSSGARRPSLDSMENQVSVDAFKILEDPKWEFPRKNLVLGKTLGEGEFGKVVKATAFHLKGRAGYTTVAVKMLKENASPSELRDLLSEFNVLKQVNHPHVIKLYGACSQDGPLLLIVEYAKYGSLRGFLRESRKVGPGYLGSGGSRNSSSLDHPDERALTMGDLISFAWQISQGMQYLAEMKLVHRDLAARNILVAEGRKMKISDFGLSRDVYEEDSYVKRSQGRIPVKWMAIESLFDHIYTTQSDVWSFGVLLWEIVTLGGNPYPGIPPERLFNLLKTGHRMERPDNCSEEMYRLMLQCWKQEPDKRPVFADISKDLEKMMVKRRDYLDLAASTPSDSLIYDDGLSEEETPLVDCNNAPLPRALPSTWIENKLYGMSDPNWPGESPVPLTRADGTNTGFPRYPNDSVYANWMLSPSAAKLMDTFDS
How it was run: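 GST-RET, 0.2 nM in 2× enzyme mix (HEPES, CHAPS, BSA, DTT), preincubated with inhibitor 30 min at 23 °C. Reaction for 1 h at 23 °C after adding 2× substrate mix: 20 μM ATP, 20 mM MgCl2, 1 μM biotinylated peptide. Single wells per concentration; IC50 from sigmoidal dose-response fit.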

Row | physical stability [1] | pIC50 [2] | Structure (SMILES)
1 | physically stable |  | CCOc1cc(=O)[nH]cc1-c1ncc(NC(=O)Nc2cc(C(C)(C)C(F)(F)F)on2)c(C)n1 [Compound A free base anhydrate, 1-(2-(4-Ethoxy-6-oxo-1,6-dihydropyridin-3-yl)-4-methylpyrimidin-5-yl)-3-(5-(1,1,1-trifluoro-2-methylpropan-2-yl)isoxazol-3-yl)urea]
2 |  | > 7.00 | CCOc1cc(-c2nc(C)c(NC(=O)Nc3ccc(CN(C)C)c(C(F)(F)F)c3)c(C)n2)c[nH]c1=O [Example 59, 1-(4-((Dimethylamino)methyl)-3-(trifluoromethyl)phenyl)-3-(2-(5-ethoxy-6-oxo-1,6-dihydropyridin-3-yl)-4,6-dimethylpyrimidin-5-yl)urea]
3 |  | > 7.00 | CC1(Oc2ccc(NC(=O)Nc3ccc(-c4c[nH]c(=O)c5cn[nH]c45)cc3F)cc2C(F)(F)F)COC1 [Example 4, 1-(2-Fluoro-4-(4-oxo-4,5-dihydro-1H-pyrazolo[4,3-c]pyridin-7-yl)phenyl)-3-(4-((3-methyloxetan-3-yl)oxy)-3-(trifluoromethyl)phenyl)urea]
4 |  | > 7.00 | CCOc1cc(-c2ccc(NC(=O)Nc3ccc(OC4CC(F)(F)C4)c(C(F)(F)F)c3)c(F)c2)c[nH]c1=O [Example 161]
5 |  | > 7.00 | CCOc1cc(-c2cc(F)c(NC(=O)Nc3ccc(OC4(C)COC4)c(C(F)(F)F)c3)c(F)c2)c[nH]c1=O [Example 90]
6 |  | > 7.00 | CCOc1cc(-c2ccc(NC(=O)Nc3ccc(OC(C)C)c(C(F)(F)F)c3)nc2C)c[nH]c1=O [Example 8, 1-(5′-Ethoxy-2-methyl-6′-oxo-1′,6′-dihydro-[3,3′-bipyridin]-6-yl)-3-(4-isopropoxy-3-(trifluoromethyl)phenyl)urea]
7 |  | > 7.00 | O=C(Nc1ccc(-c2ccc(=O)[nH]c2)cc1)Nc1ccc(CN2CCNCC2)c(C(F)(F)F)c1 [Example 17, 1-(4-(6-Oxo-1,6-dihydropyridin-3-yl)phenyl)-3-(4-(piperazin-1-ylmethyl)-3-(trifluoromethyl)phenyl)urea]
8 |  | > 7.00 | CCOc1cc(-c2ccc(NC(=O)Nc3ccc(OC(C)C)c(C(F)(F)F)c3)c(F)c2)c[nH]c1=O [Example 82]
9 |  | > 7.00 | CC1(Oc2ccc(NC(=O)Nc3ccc(-c4c[nH]c(=O)c5c4OCC5)cc3F)cc2C(F)(F)F)COC1 [Example 22, 1-(2-Fluoro-4-(4-oxo-2,3,4,5-tetrahydrofuro[3,2-c]pyridin-7-yl)phenyl)-3-(4-((3-methyloxetan-3-yl)oxy)-3-(trifluoromethyl)phenyl)urea]
10 |  | > 7.00 | CCOc1cc(-c2ccc(NC(=O)Nc3ccc(OC4(C)COC4)c(C(F)(F)F)c3)c(OC)n2)c[nH]c1=O [Example 110]
11 |  | > 7.00 | CCOc1cc(-c2ccc(NC(=O)Nc3cc(-n4cncn4)cc(C(F)(F)F)c3)c(F)c2)c[nH]c1=O [Example 72, 1-(3-(1H-1,2,4-Triazol-1-yl)-5-(trifluoromethyl)phenyl)-3-(4-(5-ethoxy-6-oxo-1,6-dihydropyridin-3-yl)-2-fluorophenyl)urea hydrochloride]
12 |  | > 7.00 | COc1cc(-c2ccc(NC(=O)Nc3ccc(OC4(C)COC4)c(C(F)(F)F)c3)cc2)c[nH]c1=O [Example 21, 1-(4-(5-Methoxy-6-oxo-1,6-dihydropyridin-3-yl)phenyl)-3-(4-((3-methyloxetan-3-yl)oxy)-3-(trifluoromethyl)phenyl)urea]
13 |  | > 7.00 | CCOc1cc(-c2ccc(NC(=O)Nc3ccc(OC(C)CO)c(C(F)(F)F)c3)c(F)c2)c[nH]c1=O (stereo not drawn) [Example 122]
14 |  | > 7.00 | CCOc1cc(-c2ccc(NC(=O)Nc3ccc(CC(C)(C)CO)c(C(F)(F)F)c3)c(F)c2)c[nH]c1=O [Example 64, 1-(4-(5-Ethoxy-6-oxo-1,6-dihydropyridin-3-yl)-2-fluorophenyl)-3-(4-(3-hydroxy-2,2-dimethylpropyl)-3-(trifluoromethyl)phenyl)urea]
15 |  | > 7.00 | CCOc1cc(=O)[nH]cc1-c1ncc(NC(=O)Nc2ccc(Cl)c(C(F)(F)F)c2)c(C)n1 [Example 54, 1-(4-Chloro-3-(trifluoromethyl)phenyl)-3-(2-(4-ethoxy-6-oxo-1,6-dihydropyridin-3-yl)-4-methylpyrimidin-5-yl)urea]
16 |  | > 7.00 | CCN1CCN(Cc2cc(F)c(NC(=O)Nc3cnc(-c4c[nH]c(=O)c(OCCO)c4)nc3C)cc2C(F)(F)F)CC1 [Example 172, 1-(4-((4-Ethylpiperazin-1-yl)methyl)-2-fluoro-5-(trifluoromethyl)phenyl)-3-(2-(5-(2-hydroxyethoxy)-6-oxo-1,6-dihydropyridin-3-yl)-4-methylpyrimidin-5-yl)urea]
17 |  | > 7.00 | CCOc1cc(-c2ncc(NC(=O)Nc3cc(C(=O)NCCN(C)C)cc(C(F)(F)F)c3)c(C)n2)c[nH]c1=O [Example 91]
18 |  | > 7.00 | CCOc1cc(-c2ncc(NC(=O)Nc3ccc(C(C)O)c(C(F)(F)F)c3)c(C)n2)c[nH]c1=O (stereo not drawn) [Example 10, 1-(2-(5-Ethoxy-6-oxo-1,6-dihydropyridin-3-yl)-4-methylpyrimidin-5-yl)-3-(4-(1-hydroxyethyl)-3-(trifluoromethyl)phenyl)urea]
